Earlier results, collected in patent US20130281394A1, “Chemosensory Receptor Ligand-Based Therapies” (ELCELYX THERAPEUTICS, INC., priority 2010, published 2013).
Where two headings read alike, the source gives them in different places.

What was measured:
[1] = tested on: bitter receptor
[2] = target: T1, sweet receptor (Homo sapiens, UniProt Q7RTX0+Q8TE23); conditions: relative sweetness on a weight comparison basis to sucrose (= 1.0); ranges: varied with the concentration of sucrose
T1 sequence (Q8TE23 20-839): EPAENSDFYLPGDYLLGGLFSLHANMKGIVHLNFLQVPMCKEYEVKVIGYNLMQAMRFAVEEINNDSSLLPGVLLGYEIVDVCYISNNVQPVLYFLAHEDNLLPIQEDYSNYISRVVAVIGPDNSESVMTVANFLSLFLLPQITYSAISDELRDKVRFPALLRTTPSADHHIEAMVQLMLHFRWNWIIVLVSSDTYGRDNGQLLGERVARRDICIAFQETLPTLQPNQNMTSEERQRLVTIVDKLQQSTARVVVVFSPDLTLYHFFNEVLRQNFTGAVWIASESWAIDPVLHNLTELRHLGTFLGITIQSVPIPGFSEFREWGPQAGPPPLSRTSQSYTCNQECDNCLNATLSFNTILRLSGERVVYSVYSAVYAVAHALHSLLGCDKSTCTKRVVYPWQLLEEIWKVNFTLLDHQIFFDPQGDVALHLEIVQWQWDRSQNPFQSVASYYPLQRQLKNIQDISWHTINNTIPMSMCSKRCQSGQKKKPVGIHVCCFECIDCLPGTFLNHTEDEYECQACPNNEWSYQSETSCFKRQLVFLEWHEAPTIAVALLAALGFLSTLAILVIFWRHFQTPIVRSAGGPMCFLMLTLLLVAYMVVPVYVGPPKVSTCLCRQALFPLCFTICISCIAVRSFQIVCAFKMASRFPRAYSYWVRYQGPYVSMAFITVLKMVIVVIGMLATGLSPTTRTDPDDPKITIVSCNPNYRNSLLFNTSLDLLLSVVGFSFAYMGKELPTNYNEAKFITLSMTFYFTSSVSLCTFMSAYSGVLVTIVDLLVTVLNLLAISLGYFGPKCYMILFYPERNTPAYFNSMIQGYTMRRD
T1 sequence (Q7RTX0 21-852): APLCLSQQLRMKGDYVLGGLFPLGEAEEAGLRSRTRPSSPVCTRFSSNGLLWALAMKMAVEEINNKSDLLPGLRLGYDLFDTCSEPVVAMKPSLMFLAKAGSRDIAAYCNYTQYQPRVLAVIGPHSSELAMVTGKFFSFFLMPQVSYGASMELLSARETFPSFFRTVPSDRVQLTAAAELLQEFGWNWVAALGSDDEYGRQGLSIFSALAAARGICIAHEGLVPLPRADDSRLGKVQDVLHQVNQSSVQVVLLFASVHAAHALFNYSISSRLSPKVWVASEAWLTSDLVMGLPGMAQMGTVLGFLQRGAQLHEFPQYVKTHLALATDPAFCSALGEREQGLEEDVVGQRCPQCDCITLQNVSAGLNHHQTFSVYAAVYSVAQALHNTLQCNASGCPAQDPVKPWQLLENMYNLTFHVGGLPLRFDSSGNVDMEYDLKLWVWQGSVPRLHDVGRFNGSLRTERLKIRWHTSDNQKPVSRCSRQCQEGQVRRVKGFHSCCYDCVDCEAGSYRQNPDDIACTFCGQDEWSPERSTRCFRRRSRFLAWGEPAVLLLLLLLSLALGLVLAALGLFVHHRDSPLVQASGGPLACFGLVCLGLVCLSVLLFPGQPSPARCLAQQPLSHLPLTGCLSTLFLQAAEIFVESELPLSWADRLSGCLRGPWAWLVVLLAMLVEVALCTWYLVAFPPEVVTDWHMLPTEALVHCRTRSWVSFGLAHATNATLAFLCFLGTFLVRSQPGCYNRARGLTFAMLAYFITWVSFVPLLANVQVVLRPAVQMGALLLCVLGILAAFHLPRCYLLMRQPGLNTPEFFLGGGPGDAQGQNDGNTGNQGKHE

[3] = tested on: gut hormones; conditions: humans
[4] = rats
[5] = tested on: GLP-1; conditions: humans
[6] = tested on: GLP-1; conditions: rats, with a DPP-IV inhibitor
[7] = tested on: gut hormone release; conditions: rats
[8] = tested on: gut hormone release; conditions: instillation into the duodenum of humans
[9] = patients with jejunostomy
[10] = in vivo

C[C@@H]1O[C@@H](O[C@H]2[C@H](Oc3cc(O)c4c(c3)O[C@H](c3ccc(O)cc3)CC4=O)O[C@H](CO)[C@@H](O)[C@@H]2O)[C@H](O)[C@H](O)[C@H]1O [Naringin]
Taste quality [1]: Bitter

COc1ccc(-c2cc(=O)c3c(OC)c(OC)c(OC)c(OC)c3o2)cc1OC [Nobiletin]
Taste quality [1]: Bitter

CC(=O)O[C@H]1CC(=O)OC(C)(C)[C@@H]2CC(=O)[C@]3(C)[C@H](CC[C@@]4(C)[C@H](c5ccoc5)OC(=O)[C@H]5O[C@]543)[C@@]12C [Nomilin]
Taste quality [1]: Bitter

C=C[C@H](O)CC(=NOS(=O)(=O)O)S[C@@H]1O[C@H](CO)[C@@H](O)[C@H](O)[C@H]1O [Progoitrin]
Taste quality [1]: Bitter

O=c1c(O)c(-c2ccc(O)c(O)c2)oc2cc(O)cc(O)c12 [Quercetin]
Taste quality [1]: Bitter

C=C1C[C@@]23CC[C@H]4[C@@](C)(CCC[C@@]4(C)C(=O)O[C@@H]4O[C@H](CO)[C@@H](O)[C@H](O)[C@H]4O)[C@@H]2CC[C@]1(O[C@@H]1O[C@H](CO)[C@@H](O)[C@H](O[C@@H]2O[C@H](CO)[C@@H](O)[C@H](O)[C@H]2O)[C@H]1O[C@@H]1O[C@H](CO)[C@@H](O)[C@H](O)[C@H]1O)C3 [Rebaudioside A]
Sweetness/potency [2]: 242 | alterations of gut hormones in the circulation [3]: no alterations

COc1ccc(-c2cc(=O)c3c(OC)c(OC)c(OC)cc3o2)cc1OC [Sinensetin]
Taste quality [1]: Bitter

COc1ccc(-c2cc(=O)c3c(OC)c(OC)c(OC)c(OC)c3o2)cc1 [Tangeretin]
Taste quality [1]: Bitter

O=c1c(-c2ccc(O)cc2)coc2cc(O)ccc12 [daidzein]
Taste quality [1]: Bitter or astringent

N[C@@H](CCC(=O)O)C(=O)O [glutamate]
abdominal fat [4]: reduced | weight gain [4]: decreased

OCCN1C[C@H](O)[C@@H](O)[C@H](O)[C@H]1CO [miglitol]
post-prandial GLP-1 levels [5]: increase | increase in GLP-1 [6]: synergistic

OC[C@H]1O[C@H](O[C@]2(CCl)O[C@H](CCl)[C@@H](O)[C@@H]2O)[C@H](O)[C@@H](O)[C@H]1Cl [sucralose]
gut hormone release [7]: no effect | gut hormone release [8]: no effect

GLP-2: gut hormone administered to patients with jejunostomy (HADGSFSDEMNTILDNLAARDFINWLIQTKITD; Glucagon-like peptide 2; UniProt P01275 146-178, looked up)
gastric emptying of solids and liquids [9]: prolong | intestinal absorption of energy and intestinal wet weight absorption [9]: improve

glucagon-like peptide-1 [GLP-1]
portal:arterial gradient [10]: > 2:1
